Article PMC10111420, “Optimization of Host Cell-Compatible, Antimicrobial Peptides Effective against Biofilms and Clinical Isolates of Drug-Resistant Bacteria” (ACS Infectious Diseases, 2023)
Values after ≈ are worked out from the molar mass of the structure shown. Where a SMILES comes first, the peptide text is derived from it. [ ]: non-standard residue; d: D form.

Columns and labels:
[1] = system: MRSA SAP400, a USA400 strain; experiment: microbe, parasite or virus in culture; settings: USA400
Experimental: (§1) Subcultures, prepared by inoculating 25 mL of fresh tryptic soy broth (TSB) with 200 μL of an overnight culture, were grown to log phase (OD600 = 0.3–0.6), after which cell counts were determined by measuring the OD600 (1.0 = 5 × 10^8 CFU/mL for E. coli, 4 × 10^8 CFU/mL for K. pneumoniae, 4 × 10^8 CFU/mL for P. aeruginosa, 1.5 × 10^8 CFU/mL for S. aureus). Bacterial cells were diluted to appropriate concentrations in TSB. We used the following clinical bacterial isolates of Klebsiella pneumoniae in this study: Strains KP6, KP46, NDM-1, KP396, and KP398 have been previously described.[43] ST58 strains C2, C3, and I2 are also described.[41] […] MRSA, […] S. aureus strain, is SAP400, a USA400 strain of community-acquired MRSA. […] The second independent set of K. pneumoniae isolates are previously described.[20],[21]
(§2) The antibiotics were serially diluted by a factor of 2:3 horizontally across 96-well plates from Corning, 25 μL per well. One column was reserved for controls. For the assays performed in the presence of RBC, type O+ human RBCs at 0 or 2.5 × 10^9 cells/mL were added in 50 μL aliquots to all wells. Following a 30-min incubation, 50 μL of TSB, inoculated with 5 × 10^5 CFU/mL, was added to all wells, and plates were incubated overnight at 37 °C. Following overnight incubation at 37 °C, the OD600 was measured (values of less than 0.1 were considered sterilized). To assess bacterial growth in the assays with RBC, the OD600 was measured after a second-day inoculation with 10 μL of solution from the original plate added to 100 μL of sterile TSB followed by overnight incubation.
(§3) Experiments were repeated four to eight times independently, with pairs of replicate measurements on each 96-well plate. After overnight growth, optical densities were measured at 660 nm and the sterilized wells were identified by having O.D. < 0.08. Nonsterilized wells were nearly opaque with OD > 0.6. For each measurement, we recorded the largest dilution that sterilized the bacteria. Statistics are done on dilution numbers, rather than calculated concentrations, because only the former have normal distributions.

[2] = system: Pseudomonas aeruginosa clinical isolates; experiment: microbe, parasite or virus in culture; settings: clinical isolates
Experimental: as §1, §2, §3

[3] = system: luminescent P. aeruginosa (PAO1); experiment: Murine wound infection model, P. aeruginosa; assay type: in vivo, CD1 mice; settings: 75 μg in 20 μL water with 0.025% acetic acid, topical, every 8 h for the first 5 days; luminescence (IVIS), Days 1–3; four animals per group
Experimental: (§4) Wound luminescence values were recorded once per day for each animal during the experiment using an IVIS whole animal imaging system. Total luminescence values, integrated over the entire wound area, were averaged for the four animals in each group. Treated versus control values were compared for each day using a two-sample t-test. Multiple comparisons were corrected using the method of Bonferroni.

MRSA wound biofilms = experiment: SEM of Tegaderm wound dressing, MRSA; assay type: in vivo, CD1 mice; settings: dressing removed on Day 3, treated three times a day
Text: The Tegaderm dressing used in the murine wound model is an excellent substrate for bacterial adhesion and biofilm formation.[5],[15] […] We imaged three to four randomly selected areas of each Tegaderm sample at two magnifications each. Each image is scored for the presence/absence of bacterial cells, either rod-shaped P. aeruginosa, ∼1 μm in diameter, or spherical MRSA cocci, ∼0.9 μm in diameter. Images are also scored for biofilm-like structures defined by having multiple bacteria embedded in an obvious three-dimensional matrix. These distinctions are shown by representative images of the fixed Tegaderm dressings in Figure 9A,B. In vehicle control samples, we observed that P. aeruginosa frequently forms an open, three-dimensional matrix in which many cells are entangled in μm-long fibers. We observed that MRSA also forms a matrix in which cells are close-packed in strands that comprise a large-scale mesh. Every SEM image (68/68) from vehicle control samples of the two bacteria contained obvious visible bacteria, and most of these images contained ≥50 individual cells. In samples from peptide-treated animals, 57 of 68 (84%) of images had no visible bacteria. […] We performed a statistical analysis of observed bacteria and biofilms using the binomial equation. P-values for all comparisons of treated vs vehicle were less than 0.001. […]

human RBCs = assay type: cell-based
Procedure, shortened: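 Washed human O+ erythrocytes (2 × 10^8 cells/mL stock, mixed 1:1) were incubated with peptide serially diluted from 100 μM in PBS for 1 h at 37 °C. Released hemoglobin was read at 410 nm in supernatant; fractional hemolysis calculated against 1% Triton (100%) and 0% lysis controls, averaged over ≥3 experiments.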

K. pneumoniae isolates = experiment: Susceptibility of all K. pneumoniae isolates (both sets); assay type: cell-based, Klebsiella pneumoniae; settings: both sets of clinical isolates
Text: In parallel experiments, resistance of P. aeruginosa to multiple conventional antibiotics grew rapidly over just a few passages.[5] […] The mechanism of resistance avoidance is currently unknown. Further studies will be required to understand the mechanistic basis for the resistance avoidance of D-CONGA-Q7 against K. pneumoniae isolates. These insights will be particularly important for the advancement of resistance-avoiding AMPs into the clinic.

[4] = system: 14 clinical isolates of resistant bacterial strains; experiment: Broth dilution, summary over the 14 clinical isolates of the first set; assay type: cell-based; settings: 14 clinical isolates of the first set
Experimental: In Figure 4B, we plot the fraction of isolates sterilized as functions of antibiotic concentration.
as §1, §2

luminescent MRSA = experiment: Murine wound infection model, MRSA; assay type: in vivo, CD1 mice; settings: 75 μg in 20 μL water with 0.025% acetic acid, topical, every 8 h for the first 5 days; luminescence (IVIS), Days 1–3; four animals per group
Experimental: as §4

Structure (SMILES): CC(C)C[C@@H](NC(=O)[C@@H](CCC(N)=O)NC(=O)[C@@H](CCCNC(=N)N)NC(=O)[C@@H](CCCNC(=N)N)NC(=O)[C@@H](C)NC(=O)[C@@H](Cc1c[nH]c2ccccc12)NC(=O)[C@@H](CCCNC(=N)N)NC(=O)[C@H](N)CCCNC(=N)N)C(=O)N[C@H](C)C(=O)N[C@H](Cc1ccccc1)C(=O)N[C@H](C)C(=O)N[C@H](Cc1ccccc1)C(=O)N[C@H](CCCNC(=N)N)C(=O)N[C@H](CCCNC(=N)N)C(N)=O [D-CONGA-Q7] (H-[dR][dR][dW][dA][dR][dR][dQ][dL][dA][dF][dA][dF][dR][dR]-NH2; N-terminus assumed)
- MIC, MRSA USA400 [1]: 1.5 µM (≈ 2.83 µg/mL)
- MIC, PA(mucoid) [2]: 4.2 µM (≈ 7.93 µg/mL)
- MIC, PA(non-mucoid) [2]: 1.1 µM (≈ 2.08 µg/mL)
- Reduction of P. aeruginosa burden [3]: ~2 logs
- MRSA: Bacteria Present (SEM images of Tegaderm) (MRSA wound biofilms; images with bacteria / all random images): 3/35
- MRSA: Biofilm present (SEM images of Tegaderm) (MRSA wound biofilms; images with biofilm / all random images): 0/35
- Hemolysis at 100 μM (fractional hemolysis) (human RBCs): 0.07
- K. pneumoniae isolates susceptible (K. pneumoniae isolates): 28 of 29
- Fraction of clinical isolates sterilized at 2 μM ([4]; 2 μM): half
- Fraction of clinical isolates sterilized at 5 μM ([4]; 5 μM): 12/14
- Maximum reduction of MRSA burden (luminescent MRSA): ≥ 4 logs
